Values of other authors, collected in patent US8383579B2, “Method for customized dispensing of variable dose drug combination products for individualizing of therapies” (Glaxosmithkline, LLC, priority 2004, dated 2013).

Assays:
[1] = Coreg + cimetidine
[2] = Lanoxin + coreg UID

AUC steady state [1] [%]	Cmax [1]	peak/trough conc [2]	SMILES
30	no change	–	COc1ccccc1OCCNCC(O)COc1cccc2[nH]c3ccccc3c12 (stereo not drawn) [Coreg]
–	–	14-16%	C[C@H]1O[C@@H](O[C@H]2[C@@H](O)C[C@H](O[C@H]3[C@@H](O)C[C@H](O[C@H]4CC[C@@]5(C)[C@H](CC[C@@H]6[C@@H]5C[C@@H](O)[C@]5(C)[C@@H](C7=CC(=O)OC7)CC[C@]65O)C4)O[C@@H]3C)O[C@@H]2C)C[C@H](O)[C@@H]1O [Lanoxin, digoxin]
